The values that follow come from PubChem BioAssay (NCI).

Each structure is given as a SMILES string.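 Assay format: 96-well plates, 48-hour exposure. At the GI50, growth is halved. TGI: concentration producing complete growth inhibition.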

Common to all, as to assay: NCI anticancer screen, dose series, 48 h
Test [1] concerns 786-0 renal.
The subject of test [2] is A549 NSCLC.
In test [3] the test system is HOP-62 NSCLC.
Test [4] deals with HT29 colon.
Test [5] has as its system IGROV1 ovarian.
Test [6] has as its system MALME-3M melanoma.
The test system of test [7] is OVCAR-5 ovarian.
The subject of test [8] is SK-MEL-5 melanoma.
The subject of test [9] is SN12C renal.
Test [10] relates to SNB-75 CNS.

Regarding `N#CC1=C(N)NC(N2CCOCC2)=NC12Nc1ccccc1N2`, the GI50 in test [1] is 13 µM; in test [2], 39.8 µM; in test [3], 6.09 µM; in test [4], 32.6 µM; in [5] it was 2.15 µM; in [6], 30.5 µM. Further, the GI50 in test [7] is 42.7 µM; in test [8] it was 15 µM; in test [9] it was 30.1 µM; in test [10], greater than 100 µM. Besides, the TGI in test [1] was 40 µM; in test [2], greater than 100 µM; in [3] it was 32.5 µM; in test [4], greater than 100 µM; in test [5] it was 23.8 µM; in test [6], greater than 100 µM. Also, the TGI in [7] was greater than 100 µM; in test [8], 32 µM; in [9], greater than 100 µM; in test [10], greater than 100 µM.

For `COc1cccc(NC(=O)c2sc3nc4c(cc3c2N)C(=O)CCC4)c1`, the GI50 in test [1] is 0.366 µM; in [2], 0.103 µM; in test [3] it was 0.337 µM; in test [4], 0.0866 µM; in [5], 0.381 µM; in [6], 0.108 µM. For the same molecule, the GI50 in [7] was 0.635 µM; in test [8], 0.064 µM; in test [9], 0.461 µM; in [10] it was 0.0579 µM. The TGI in test [1], in test [2], in test [3], in [4], in [5] and in test [6] was greater than 100 µM each time. The TGI was greater than 100 µM in test [7], greater than 100 µM in test [8], greater than 100 µM in test [9] and 12.7 µM in test [10].

For `C/C=C/CC(C)[C@@H](O)[C@H](NC)C(=O)O` (stereo not given in full), the TGI in test [1], in test [2], in test [3], in test [4], in [5] and in [6] was greater than 100 µM throughout. In addition, the TGI in test [7], in test [8], in test [9] and in [10] was greater than 100 µM in each case.

In the case of `O=[N+]([O-])CCc1cccc([N+](=O)[O-])c1`, the TGI in [1], in [2], in test [3], in test [4], in [5] and in test [6] was greater than 100 µM in each case. Also, the TGI in [7], in [8], in [9] and in test [10] was greater than 100 µM each time.
